Assay results reported in patent US8501728B2, “Substituted heteroarylamide oxazepinopyrimidone derivatives” (priority 2008, dated 2013).
Like-named read-outs stand apart in the source and are kept apart here.

Molecular target: T1, commercial GSK3beta (Millipore) (Homo sapiens, UniProt P49841)
T1 construct: purchased Millipore
Assay: biochemical
Method: In a fourth protocol: 7.5 μM of prephosphorylated GS1 peptide and 10 μM ATP (containing 300,000 cpm of ^33P-ATP) were incubated in 50 mM Hepes, pH 7.2, 1 mM DTT, 1 mM MgCl2, 1 mM EGTA, 0.01% Tween 20 buffer for 90 minutes at room temperature in the presence of commercial GSK3beta (Millipore) (total reaction volume: 100 microliters).
Inhibitors were solubilised in DMSO (final solvent concentration in the reaction medium, 1%).
The reaction was stopped with 100 microliters of a solution made of 25 g polyphosphoric acid (85% P2O5), 126 ml 85% H3PO4, H2O to 500 ml and then diluted to 1:100 before use. An aliquot of the reaction mixture was then transferred to Whatman P81 cation exchange filters and rinsed with the solution described above. Incorporated ^33P radioactivity was determined by liquid scintillation spectrometry.
(Woodgett, J. R. (1989) Analytical Biochemistry 180, 237-241.

[1] = protocol 4: 7.5 μM GS1 peptide, 10 μM ATP, 90 minutes at room temperature, read-out: GSK3β inhibitory activity IC50

T1 sequence (P49841 whole entry): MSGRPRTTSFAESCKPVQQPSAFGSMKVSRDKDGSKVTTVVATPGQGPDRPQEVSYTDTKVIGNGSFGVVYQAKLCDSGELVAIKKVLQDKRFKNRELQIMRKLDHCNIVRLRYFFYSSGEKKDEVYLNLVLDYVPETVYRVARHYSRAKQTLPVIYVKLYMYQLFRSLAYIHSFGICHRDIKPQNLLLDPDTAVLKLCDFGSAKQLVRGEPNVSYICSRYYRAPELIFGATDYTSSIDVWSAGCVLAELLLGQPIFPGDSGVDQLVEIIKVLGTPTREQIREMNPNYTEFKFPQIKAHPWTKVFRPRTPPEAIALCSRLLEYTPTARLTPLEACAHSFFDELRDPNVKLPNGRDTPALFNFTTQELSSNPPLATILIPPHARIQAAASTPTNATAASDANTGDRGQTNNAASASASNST

IC50 [1]	SMILES	IC50
5 nM	O=C(NC1COCCn2c1nc(-c1ccncn1)cc2=O)c1cc(F)cc2c1OCOC2 (racemic) [compound 12, (+/−)-6-Fluoro-4H-benzo[1,3]dioxine-8-carboxylic acid (4-oxo-2-pyrimidin-4-yl-5,6,8,9-tetrahydro-4H-7-oxa-1,4-a-diaza-benzocyclohepten-9-yl)-amide]	–
31 nM	CSc1ncc(Cl)c(C(=O)NC2COCCn3c2nc(-c2ccncn2)cc3=O)n1 (racemic) [compound 15, (+/−)-5-Chloro-2-methylsulfanyl-pyrimidine-4-carboxylic acid (4-oxo-2-pyrimidin-4-yl-5,6,8,9-tetrahydro-4H-7-oxa-1,4-a-diaza-benzocyclohepten-9-yl)-amide]	–
–	O=C(NC1COCCn2c1nc(-c1ccncn1)cc2=O)c1ccccn1 (racemic) [compound 17, (+/−)-Pyridine-2-carboxylic acid (4-oxo-2-pyrimidin-4-yl-5,6,8,9-tetrahydro-4H-7-oxa-1,4-a-diaza-benzocyclohepten-9-yl)-amide]	15 nM
52 nM	CSc1ncc(Br)c(C(=O)NC2COCCn3c2nc(-c2ccncn2)cc3=O)n1 (racemic) [compound 18, (+/−)-5-Bromo-2-methylsulfanyl-pyrimidine-4-carboxylic acid (4-oxo-2-pyrimidin-4-yl-5,6,8,9-tetrahydro-4H-7-oxa-1,4-a-diaza-benzocyclohepten-9-yl)-amide]	–
